Measured values as given in ChEMBL document CHEMBL3227983, “N-Acetimidoyl- and N-formimidoylthienamycin derivatives: antipseudomonal beta-lactam antibiotics” (J Med Chem, 1979).

Assays:
[1] = Stability of the compound in amorphous form in deionized water assessed as time at which 90% of initial UV-absorbance remains at 60 mg/ml at 23 degC; assay type: physicochemical; conditions: buffer
[2] = Stability of the compound in amorphous form in 1 M PO4 assessed as time at which 90% of initial UV-absorbance remains at 60 mg/ml at pH 7 at 23 degC; assay type: physicochemical; conditions: buffer
[3] = Stability of the compound in amorphous form assessed as compound remaining after 5 months at 60 mg/ml at 23 degC in presence of 0.1 equiv of NaHCO3; assay type: physicochemical; conditions: read-out: Stability
Staphylococcus aureus [4] = assay: Antibacterial activity against penicillin-sensitive Staphylococcus aureus MB2985 at 25 ug/disk; assay type: functional; conditions: read-out: DIZ
Staphylococcus aureus [5] = assay: Antibacterial activity against penicillin-resistant Staphylococcus aureus MB2314 at 25 ug/disk; assay type: functional; conditions: read-out: DIZ
Escherichia coli [6] = assay: Antibacterial activity against penicillin-sensitive Escherichia coli MB2482 at 25 ug/disk; assay type: functional; conditions: read-out: DIZ
Escherichia coli [7] = assay: Antibacterial activity against penicillin-resistant Escherichia coli MB2964 at 25 ug/disk; assay type: functional; conditions: read-out: DIZ
Enterobacter cloacae [8] = assay: Antibacterial activity against penicillin-sensitive Enterobacter cloacae MB2647 at 25 ug/disk; assay type: functional; conditions: read-out: DIZ
Enterobacter cloacae [9] = assay: Antibacterial activity against penicillin-resistant Enterobacter cloacae MB2646 at 25 ug/disk; assay type: functional; conditions: read-out: DIZ
Pseudomonas aeruginosa [10] = assay: Antibacterial activity against penicillin-sensitive Pseudomonas aeruginosa MB2835 at 25 ug/disk; assay type: functional; conditions: read-out: DIZ
Pseudomonas aeruginosa [11] = assay: Antibacterial activity against penicillin-resistant Pseudomonas aeruginosa MB3350 at 25 ug/disk; assay type: functional; conditions: read-out: DIZ
[12] = Drug degradation in crystalline form at 10 mg/ml; assay type: physicochemical; conditions: read-out: Drug degradation
[13] = Stability of the compound in crystalline form in deionized water assessed as time at which 90% of initial UV-absorbance remains at 10 mg/ml at 23 degC; assay type: physicochemical; conditions: buffer
[14] = Stability of the compound in amorphous form assessed as compound remaining after 6 months at 60 mg/ml at 23 degC in presence of 0.1 equiv of NaHCO3; assay type: physicochemical; conditions: read-out: Stability
[15] = Stability of the compound in crystalline form assessed as compound remaining after 6 months at 10 mg/ml at 23 degC in presence of 0.1 equiv of NaHCO3; assay type: physicochemical; conditions: read-out: Stability
[16] = Stability of the compound in amorphous form assessed as compound remaining after 1 month at 60 mg/ml at 23 degC in presence of 0.1 equiv of NaHCO3; assay type: physicochemical; conditions: read-out: Stability

| SMILES | Time [1] | Time [2] | remaining at 3652.5 h, 60 mg/ml [3] | zone of inhibition at 25 µg/disc (Staphylococcus aureus [4]) | zone of inhibition at 25 µg/disc (Staphylococcus aureus [5]) | zone of inhibition at 25 µg/disc (Escherichia coli [6]) | zone of inhibition at 25 µg/disc (Escherichia coli [7]) | zone of inhibition at 25 µg/disc (Enterobacter cloacae [8]) | zone of inhibition at 25 µg/disc (Enterobacter cloacae [9]) | zone of inhibition at 25 µg/disc (Pseudomonas aeruginosa [10]) | zone of inhibition at 25 µg/disc (Pseudomonas aeruginosa [11]) | degraded at 10 mg/ml [12] | Time [13] | remaining at 4383 h, 60 mg/ml [14] | remaining at 4383 h, 10 mg/ml [15] | remaining at 730.5 h, 60 mg/ml [16] |
| --- | --- | --- | --- | --- | --- | --- | --- | --- | --- | --- | --- | --- | --- | --- | --- | --- |
| CC(=N)NCCSC1=C(C(=O)O)N2C(=O)[C@H]([C@@H](C)O)[C@H]2C1 | 5 h | 0.5 h | 100% | 38.5 mm | 40 mm | 28 mm | 29.5 mm | 27 mm | 27 mm | 28 mm | 28 mm | < 1% |  |  |  |  |
| C[C@@H](O)[C@H]1C(=O)N2C(C(=O)O)=C(SCCN=CN)C[C@H]12 [IMIPENEM ANHYDROUS] | 2.5 h | 0.5 h |  | 40 mm | 40.5 mm | 28.5 mm | 29.5 mm | 27 mm | 27.5 mm | 29 mm | 29 mm |  | 17 h | 80% | 100% |  |
| C[C@@H](O)[C@H]1C(=O)N2C(C(=O)O)=C(SCCN)C[C@H]12 [THIENAMYCIN] | 0.5 h | 0.5 h |  | 40 mm | 41 mm | 28.5 mm | 29 mm | 25.5 mm | 27 mm | 26 mm | 26 mm |  |  |  |  | 80% |
